Some targets named below: A*6802 (Homo sapiens, UniProt P04439, A269V/D140Y/D185E/E176V/E277Q/E87N/F33Y/G231S/I121R/I166T/I218V/L180W/L300P/L318F/N151K/P208A/P217A/Q86R/R138H/R169H/S129P/T345S/V36M); A*0203 (Homo sapiens, UniProt P04439, A173T/D140Y/D185E/D98H/E277Q/G131W/G231S/I119V/I121R/I166T/I218V/L180W/L300P/L318F/N151K/N90K/P208A/P217A/Q86G/Q94H/R138H/R169H/T345S); HLA-A*0201 (HLA-A2.1) (Homo sapiens, UniProt P04439, D140Y/D185E/D98H/E176V/E277Q/G131W/G231S/I119V/I121R/I166T/I218V/L300P/L318F/N151K/N90K/P208A/P217A/Q86G/Q94H/R138H/R169H/T345S); A*0206 (Homo sapiens, UniProt P04439, D140Y/D185E/D98H/E176V/E277Q/F33Y/G131W/G231S/I119V/I121R/I166T/I218V/L300P/L318F/N151K/N90K/P208A/P217A/Q86G/Q94H/R138H/R169H/T345S); A*0202 (Homo sapiens, UniProt P04439, D140Y/D185E/D98H/E176V/E277Q/G131W/G231S/I119L/I121R/I166T/I218V/L180W/L300P/L318F/N151K/N90K/P208A/P217A/Q67R/Q86G/Q94H/R138H/R169H/T345S).

Holding throughout (test): biochemical
Type in all cases: binding

No end group written: not given here.

On to TVELFIPNITV [Peptide 9013.0300], for which the IC50 was 0.193 µM at A*6802, more than 20000 nM on A*0203, 8210 nM on HLA-A*0201 (HLA-A2.1) and 1640 nM against A*0206.

For YTLHVIKSDV [Peptide 9013.0151], the IC50 at A*6802 was determined as 0.016 µM; against A*0203, 972 nM; against HLA-A*0201 (HLA-A2.1), 4370 nM; against A*0206, 54 nM.

For the compound GLLVGVALI [Peptide 9013.0111], the IC50 against A*0203 was 13 nM; against A*0202 it was 89 nM; against HLA-A*0201 (HLA-A2.1), 158 nM; against A*0206 it was 206 nM.

On to VLFTCEPET [Peptide 9013.0045], for which the IC50 was more than 20 µM at A*6802, 502 nM at A*0203, 2540 nM on HLA-A*0201 (HLA-A2.1) and more than 20000 nM at A*0206.

On to RLQLSNGNRV [Peptide 9013.0224], for which the IC50 on A*6802 is more than 20 µM; on A*0203 it was 669 nM; against HLA-A*0201 (HLA-A2.1) it was 17600 nM; at A*0206 it was more than 20000 nM.

Turning to LIQPYSIYA [Peptide 86.0202], the half-inhibitory concentration (IC50) against A*6802 was 3.3 µM; against A*0203, 2110 nM; against HLA-A*0201 (HLA-A2.1) it was 1400 nM; on A*0206 it was 428 nM.

Regarding ILIGVLVGVAL [Peptide 9013.0347], the IC50 is more than 20 µM on A*6802, 1010 nM against A*0203, 1520 nM against HLA-A*0201 (HLA-A2.1) and 120 nM at A*0206.

As to ELLLLVHNL [Peptide 9013.0022], the values for the 50% inhibitory concentration (IC50) on A*0203, at A*0202 and against A*0206 were more than 20000 nM, 1880 nM and 7180 nM, respectively.

Consider SLMKFLQGSV [Peptide 1578.04], for which the IC50 against A*0203 was 4.6 nM; on A*0202, 31 nM; at HLA-A*0201 (HLA-A2.1), 436 nM; against A*0206 it was 1450 nM.

As for FLQGCIISYA [Peptide 1578.18], the IC50 against A*0203 amounted to 9 nM; at A*0202, 2.6 nM; against HLA-A*0201 (HLA-A2.1) it was 93 nM; against A*0206 it was 241 nM.

With TQVLFIAKV [Peptide 9013.0105], the IC50 came out at 27 nM on A*0203, 1040 nM against HLA-A*0201 (HLA-A2.1) and 46 nM on A*0206.

In the case of WLRLLLTASLL [Peptide 9013.0254], the IC50 is more than 20 µM against A*6802, 12 nM against A*0203, 3480 nM on HLA-A*0201 (HLA-A2.1) and 11800 nM against A*0206.

Consider KLLEKLLCI [Peptide 1578.15], for which the IC50 was more than 20 µM against A*6802, 15 nM on A*0203 and 51 nM on A*0206.

Take WLRLLLTASL [Peptide 9013.0116]: the IC50 at A*6802 was found to be 19.8 µM; against A*0203, 32 nM; against HLA-A*0201 (HLA-A2.1), 8820 nM; against A*0206 it was 17400 nM.

Take TIESTPFNVV [Peptide 9013.0130]: the IC50 was 0.305 µM against A*6802, 671 nM at A*0203, 15600 nM against HLA-A*0201 (HLA-A2.1) and 3230 nM at A*0206.

For RTLQQLLFA [Peptide 1525.18], the half-maximal inhibitory concentration (IC50) against A*6802 was more than 20 µM; against A*0203 it was 394 nM; at HLA-A*0201 (HLA-A2.1), 948 nM; against A*0206, 18 nM.

As for TLVLFIAKI [Peptide 9013.0106], the IC50 on A*6802 came to 13 µM; at A*0203, 21 nM; against HLA-A*0201 (HLA-A2.1), 16600 nM; at A*0206, 29 nM.

On to KLTSLCVTL [Peptide 1537.03], for which the IC50 is more than 20 µM at A*6802, 91 nM against A*0203, 29 nM against A*0202 and 91 nM against HLA-A*0201 (HLA-A2.1).

In the case of ILAEAMSKA [Peptide 1516.09], the IC50 on A*6802 turned out to be 2.65 µM; against A*0203 it was 2.8 nM; against A*0202, 3.5 nM; against HLA-A*0201 (HLA-A2.1) it was 72 nM.

Regarding SLPVSPRLQV [Peptide 9013.0222], the IC50 is more than 20 µM against A*6802, 155 nM against A*0203, 7310 nM at HLA-A*0201 (HLA-A2.1) and more than 20000 nM at A*0206.

For ILNDTGFYTL [Peptide 9013.0150], the IC50 at A*6802 worked out at 11.3 µM; against A*0203, 59 nM; against A*0202, 2.1 nM; at HLA-A*0201 (HLA-A2.1) it was 152 nM.

Take KLTPLCVIL [Peptide 1516.15]: the IC50 against A*6802 is more than 20 µM; against A*0203, 968 nM; on A*0202, 74 nM; at HLA-A*0201 (HLA-A2.1), 356 nM.

On to TLESTPFNV [Peptide 9013.0012], for which the IC50 on A*6802 stood at 0.241 µM; against A*0203 it was 221 nM; against A*0202, 19 nM; at HLA-A*0201 (HLA-A2.1), 216 nM.

As to SLLTFWNPPV [Peptide 9013.0118], the IC50 on A*6802 is 0.024 µM; against A*0203 it was 159 nM; at A*0202, 76 nM; against HLA-A*0201 (HLA-A2.1) it was 208 nM.

Take `CC[C@H](C)[C@H](NC(=O)CN)C(=O)N[C@@H](CCSC)C(=O)N[C@H](C(=O)NCC(=O)N[C@H](C(=O)N[C@@H](CC(C)C)C(=O)N[C@H](C(=O)NCC(=O)N[C@H](C(=O)N[C@H](C(=O)O)C(C)C)C(C)C)C(C)C)C(C)C)[C@@H](C)CC` [Peptide 9013.0344]: the IC50 turned out to be 82 nM at A*0203, 563 nM on HLA-A*0201 (HLA-A2.1) and 912 nM at A*0206.

For the compound KVTIESTPFNV [Peptide 9013.0265], the IC50 against A*6802 amounted to 1.55 µM; against A*0203 it was 40 nM; at HLA-A*0201 (HLA-A2.1) it was 2580 nM; against A*0206, 93 nM.

Take VLAEAMSAA [Peptide 1516.11]: the IC50 against A*6802 came out at 0.474 µM; against A*0203, 0.87 nM; at HLA-A*0201 (HLA-A2.1), 24 nM; against A*0206, 10 nM.

LLTFWNPPTTV [Peptide 9013.0259]: the IC50 worked out at 7.54 µM on A*6802, 58 nM against A*0203, 67 nM against A*0202 and 762 nM at HLA-A*0201 (HLA-A2.1).

Turning to MTANPPIPV [Peptide 1539.01], the IC50 against A*6802 turned out to be 0.002 µM; against A*0203, 2.5 nM; against A*0202, 7.2 nM; on HLA-A*0201 (HLA-A2.1) it was 2.3 nM.

On to NLLYGPDDPTI [Peptide 9013.0310], for which the IC50 against A*6802 is more than 20 µM; against A*0203, 8650 nM; on HLA-A*0201 (HLA-A2.1) it was 9880 nM; on A*0206, more than 20000 nM.

On to TLELFIPNI [Peptide 9013.0060], for which the IC50 was determined as 398 nM at A*0203, 29 nM against HLA-A*0201 (HLA-A2.1) and 84 nM on A*0206.

As to RVLQQLLFI [Peptide 1545.01], the IC50 against A*6802 was 10.6 µM; on A*0203, 24 nM; at HLA-A*0201 (HLA-A2.1), 27 nM; against A*0206, 8.5 nM.

As to VQWAYDHDI [Peptide 86.0205], the half-maximal inhibitory concentration (IC50) is more than 20 µM on A*6802, more than 20000 nM on A*0203, 6840 nM against A*0202 and 6900 nM against HLA-A*0201 (HLA-A2.1).

Consider TLGIMIGVL [Peptide 9013.0108], for which the half-maximal inhibitory concentration (IC50) is more than 20 µM at A*6802, 1700 nM against A*0203, 7420 nM on HLA-A*0201 (HLA-A2.1) and 9060 nM against A*0206.

Regarding LLLVHNLPQHV [Peptide 9013.0275], the IC50 against A*6802 was more than 20 µM; against A*0203, 652 nM; on HLA-A*0201 (HLA-A2.1), 4820 nM; against A*0206 it was 5140 nM.

Regarding `CC[C@H](C)[C@H](NC(=O)[C@@H](NC(=O)[C@H](CC(C)C)NC(=O)[C@@H](N)CS)[C@@H](C)O)C(=O)N[C@@H](Cc1c[nH]cn1)C(=O)N[C@@H](Cc1ccc(O)cc1)C(=O)N[C@@H](CC(N)=O)C(=O)N[C@@H](Cc1ccc(O)cc1)C(=O)N[C@H](C(=O)O)C(C)C` [Peptide 1323.07], the IC50 against A*6802 amounted to 0.64 µM; at A*0203, 65 nM; on A*0202 it was 216 nM; against HLA-A*0201 (HLA-A2.1) it was 270 nM.

As to TQELFIPNV [Peptide 9013.0059], the IC50 against A*6802 is 4.93 µM; against A*0203, 3320 nM; at HLA-A*0201 (HLA-A2.1), 308 nM; on A*0206 it was 55 nM.

For ILNIIQNDT [Peptide 9013.0033], the IC50 was more than 20 µM against A*6802, 8010 nM at A*0203, more than 20000 nM against HLA-A*0201 (HLA-A2.1) and more than 20000 nM against A*0206.

In the case of YVCGIQNSVSV [Peptide 9013.0337], the IC50 against A*0203 worked out at 159 nM; against A*0206 it was 58 nM.

With QLSNGNRTV [Peptide 9013.0095], the IC50 is more than 20 µM on A*6802, 54 nM against A*0203, 15100 nM at HLA-A*0201 (HLA-A2.1) and more than 20000 nM against A*0206.

With WQRLLLTASV [Peptide 9013.0115], the 50% inhibitory concentration (IC50) on A*6802 is more than 20 µM; on A*0203, 36 nM; on HLA-A*0201 (HLA-A2.1), 5110 nM; at A*0206, 2230 nM.

As for VLYGPDAPV [Peptide 9013.0052], the IC50 against A*6802 amounted to 3.26 µM; on A*0203 it was 19 nM; on A*0202, 2.4 nM; on HLA-A*0201 (HLA-A2.1), 48 nM.

Take KLLSKLLCV [Peptide 1578.03]: the IC50 against A*6802 is more than 20 µM; on A*0203, 36 nM; on A*0202, 68 nM; against HLA-A*0201 (HLA-A2.1), 55 nM.

KLITVSAEL [Peptide 9013.0084]: the IC50 against A*6802 is more than 20 µM; on A*0203, 27 nM; on A*0202 it was 3.3 nM; on HLA-A*0201 (HLA-A2.1), 71 nM.
